# Reference: paper PMC7759686, “Pharmacokinetics and Immunological Effects of Romidepsin in Rhesus Macaques” (Frontiers in Immunology, 2020)
# How the values were obtained:
# [1] = human, in vivo; cited from earlier work
# [2] = penetration into CSF; cited from earlier work
# Method: The brain is also a key HIV reservoir ([71]–[73]). […] At 2 h postinfusion, the plasma concentration was 19.9 ng/ml (37.6nM). Assuming a 2% penetration, this would h ...
# [3] = test system: CD3+ T cells in tissues; assay: CD3+ T cell frequency in intestine and LNs by immunofluorescence; assay type: in vivo, rhesus macaques (Macaca mulatta); details: for CD3+ T cells in superficial LNs, area fraction: average, pretreatment 30%, 7 mg/m^2
# Method: CD3^+ T cell frequency in the intestine and LNs was assessed through immunofluorescence (IF), as described ([55]). Fixed, paraffin-embedded tissues from the three RMs were cut and placed onto microscope slides. The slides were treated three times with xylene (Thermo Fisher Scientific), run through an ethanol battery, washed with dH2O, and placed into 1× PBS (Thermo Fisher Scientific). Slides were microwaved with Antigen Unmasking Solution (Vector Labs, Burlingame, CA) for antigen retrieval. Once slides had cooled, they were washed three times in 1× PBS and the tissues were circled with Immedge Pen (Vector Labs) to create a hydrophobic barrier. Dako Serum-Free Protein Block (Agilent, Santa Clara, CA) was added to the tissues. The Dako Protein Block was dumped off and the slides incubated with mouse α-CD3 (Agilent). The primary antibody was dumped off and slides washed in 1× PBS as previously noted. The remaining steps were completed in the dark. The slides were incubated with the secondary antibody, goat α-mouse (Alexa Fluor 488) (Invitrogen) followed by a subsequent 1× PBS wash. The slides were incubated with DAPI (Millipore Sigma, Burlington, MA), and then dumped off and washed with 1× PBS, followed by dH2O, and dried. Coverslips were then mounted to the slides with fluorescent mounting media (Agilent). Slides were visualized and imaged with Zeiss Imager M1 microscope and Axiovision software [V4.8.2.0 (Carl Zeiss AG, Oberkochen, Germany)]. Image quantifications were performed using the FIJI distribution ([56]) of ImageJ 1.52c ([57]), where positive fluorescent signals were isolated by setting color thresholds and the percent positive area was calculated.
# [4] = test system: circulating lymphocytes, T cells, B cells and neutrophils; assay: Immune cell counts in blood (CBC, TruCount flow cytometry); assay type: in vivo, rhesus macaques (Macaca mulatta); details: for CD8+ T cells in blood: baseline 1,047; for CD4+ T cells in blood: baseline 2,518; for total circulating lymphocytes: baseline 5,050, 3 RMs, 7 mg/m^2
# Method: Figure 1 illustrates the sampling schedule. […] Intestinal biopsies were taken at 13 days prior to infusion; intestinal resections were taken at 30 days before infusion and 1 day postinfusion; LNs were collected at 30 and 13 days prior to infusion, 6 h postinfusion, and 1 and 7 days postinfusion. The samples collected during the first round of RMD treatment were used for immune population dynamics and functionality.
# (§1) Complete blood counts (CBCs) and serum chemistries were monitored in the collected samples from both the RMD-treated RMs and control RMs by either the Marshfield Laboratories (Cleveland, OH), IDEXX Reference Laboratories (IDEXX Laboratories, Inc, Westbrook, ME) or in house, using a ProCyte Hematology Analyzer (IDEXX Laboratories, Inc).
# Whole blood was stained to monitor the impact of RMD on the immune cell populations. TruCount was used to determine absolute counts of CD3^+, CD4^+, CD8^+ T cells and CD20^+ B cells as described ([51]–[53]). Fifty microliters of whole blood were stained with antibodies against CD3-V450, CD4-APC, CD20-APC-H7, and CD45-PerCP in TruCount tubes (BD Biosciences, Franklin Lakes, NJ, USA) with a set number of fluorescent beads as internal standards. CD8^+ T cell counts were assessed through the ratio of CD8^+ to CD3^+ T cells. Whole blood was also stained with combinations of the following fluorescently labeled antibodies: CD3-V450 (SP34-2), CD4-APC (L200), CD8-PE-CF594 (RPA-T8), CD14-PE-Cy7 (M5E2), CD38-FITC (AT-1) (Stemcell, Vancouver, BC, CA), CD20-APC-H7 (2H7), CD69-APC-Cy7 (FN50), CD95-FITC (DX2), CCR5-PE (3A9), Annexin V-FITC, HLA-DR-PE-Cy7 (L243), NKG2A-PE (Z199) (Beckman Coulter, Pasadena, CA), Strepavidin-Alexa Fluor 750 (Life Technologies, Carlsbad, CA), Biotin-CCR7 (eBioscience, San Diego, CA), LIVE/DEAD Fixable Blue Dead Cell Stain Kit (Thermo Fisher Scientific); all antibodies were from BD Biosciences unless otherwise noted. For Ki-67-PE (B56) intracellular staining, cells were fixed and permeabilized prior to Ki-67 staining. Data were acquired with a LSR-II flow cytometer (BD Biosciences) or Fortessa flow cytometer (BD Biosciences) and analyzed with FlowJo software 10.7.0 (Treestar, Ashland, OR), as described ([51], [54]).
# [5] = Serum chemistries (hepato-, nephro- and general toxicity markers); assay type: in vivo, rhesus macaques (Macaca mulatta); details: 3 RMs, 7 mg/m^2
# From the text: as §1
# [6] = 3 days postinfusion, baseline 22
# [7] = 4 days postinfusion, baseline 22
smiles,measurement,setting,value
"C/C=C1\NC(=O)[C@H]2CSSCC/C=C/[C@H](CC(=O)N[C@H](C(C)C)C(=O)N2)OC(=O)[C@H](C(C)C)NC1=O [RMD, romidepsin]",terminal elimination half-life in clinical studies,[1],6.6 to 19 h
same,terminal elimination half-life reported in humans,[1],~ 3.5 h
same,AUC of CSF/plasma,[2],2%
same,"CD3+ T cells in superficial LNs, area fraction",[3]; 6 h postinfusion,40%
same,"CD3+ T cells in intestine, area fraction","[3]; 1 day postinfusion, three RMs, pretreatment 5.8%, not significant",7.6%
same,"CD3+ T cells in superficial LNs, area fraction",[3]; 7 days postinfusion,41%
same,"CD3+ T cells in mesenteric LNs, area fraction","[3]; animal RM71, 1 day postinfusion, pretreatment 31%",43%
same,"CD3+ T cells in mesenteric LNs, area fraction","[3]; animals RM32 and RM33, 1 day postinfusion vs pretreatment, p > 0.05",virtually unchanged
same,CD8+ T cells in blood,"[4]; 12 h postinfusion, p < 0.05",204 cells/μl
same,CD4+ T cells in blood,"[4]; 12 h postinfusion, p < 0.05",402 cells/μl
same,neutrophils in blood,"[4]; 12 h postinfusion, baseline 3,273, normal 6.2 ± 2.4 × 10^3, not significant","14,287 cells/μl"
same,total circulating lymphocytes,"[4]; 12 h postinfusion, p < 0.05","1,463 cells/μl"
same,CD8+ T cells in blood,"[4]; 1 day postinfusion, p < 0.05",178 cells/μl
same,CD4+ T cells in blood,"[4]; 1 day postinfusion, p < 0.05",496 cells/µl
same,neutrophils in blood,"[4]; 1 day postinfusion, baseline 3,273","9,123 cell/µl"
same,CD8+ T cells in blood,"[4]; 2 days postinfusion, p < 0.05",204 cells/μl
same,CD4+ T cells in blood,"[4]; 2 days postinfusion, p < 0.05",366 cells/μl
same,total circulating lymphocytes,"[4]; 2 days postinfusion, p < 0.05","1,753 cells/μl"
same,CD4+ T cells in blood,[4]; 5 days postinfusion (recovery),"1,305 cells/μl"
same,CD8+ T cells in blood,[4]; 5 days postinfusion,634 cells/μl
same,neutrophils in blood,"[4]; 5 days postinfusion, baseline 3,273","2,427 cells/μl"
same,CD8+ T cells in blood,[4]; 7 days postinfusion (near full recovery),741 cells/μl
same,B cells (CD3−CD20+) in blood,"[4]; RMD treated RMs, no change in saline control group",declined
same,alanine aminotransferase (ALT),"[5]; 18 h postinfusion, baseline 22, normal range 14-94, not significant",98 U/L
same,aspartate aminotransferase (AST),"[5]; 18 h postinfusion, baseline 39, normal range 31-108, p < 0.05",186 U/L
same,creatinine,"[5]; 3 days postinfusion, baseline 0.60",0.63 mg/dL
same,alanine aminotransferase (ALT),[5]; [6],89 U/L
same,urea nitrogen,[5]; [6],29 mg/dL
same,aspartate aminotransferase (AST),"[5]; 3 days postinfusion, baseline 39",101 U/L
same,lactate dehydrogenase (LDH),"[5]; 3 days postinfusion, baseline 702, normal 514 ± 187","1,562 U/L"
same,alanine aminotransferase (ALT),[5]; [7],80 U/L
same,urea nitrogen,[5]; [7],25 mg/dL
same,aspartate aminotransferase (AST),"[5]; 4 days postinfusion, baseline 39",91 U/L
same,creatinine kinase (CK),"[5]; 4 days postinfusion, baseline 367","1,740 U/L"
same,lactate dehydrogenase (LDH),"[5]; 4 days postinfusion, baseline 702","1,323 U/L"
same,creatinine,"[5]; peak, 18 h postinfusion, baseline 0.60, normal range 0.5-1.2",0.77 mg/dL
same,urea nitrogen,"[5]; peak, 18 h postinfusion, baseline 22, normal range 8-25",35 mg/dL
same,creatinine kinase (CK),"[5]; peak, 18 h postinfusion, baseline 367, normal range 132-505, p < 0.05","7,445 U/L"
